The results in this text go back to PMC8949103 (Viruses, 2022).

Test [1] has as its target T1, PDCoV M^pro (Porcine deltacoronavirus, UniProt A0A140ESF0). In words: fluorogenic peptide cleavage assay, progress-curve inactivation. Type of test: biochemical. Particulars: covalent; Michael acceptor N3 derivative; assay similar to N3.
The target in test [2] is T1, PDCoV M^pro. The test is described as above. In kind it is biochemical. To be noted: covalent; irreversible, Cys-144, active site; substrate MCA-AVLQSGFR-Lys(Dnp)-Lys-NH2 50 µM; enzyme 2 µM; pH 7.3, 30 °C.
In test [3] the target is Porcine deltacoronavirus (PDCoV) main protease (M^pro) (Porcine deltacoronavirus (PDCoV)). In words: crystal structure.

For `Cc1cc(C(=O)N[C@@H](C)C(=O)N[C@H](C(=O)N[C@@H](CC(C)C)C(=O)N[C@H](/C=C/C(=O)OC(C)C)C[C@@H]2CCNC2=O)C(C)C)no1` [M14], the KI (inactivation) at PDCoV M^pro [1] stood at 7.56 ± 0.26 µM.

On to `COc1ccc(COC(=O)/C=C/[C@H](C[C@@H]2CCNC2=O)NC(=O)[C@H](CC(C)C)NC(=O)[C@@H](NC(=O)[C@H](C)NC(=O)c2cc(C)on2)C(C)C)cc1` [M25], for which the KI (inactivation) at PDCoV M^pro [1] is 8.8 ± 0.15 µM.

Turning to `Cc1cc(C(=O)N[C@@H](C)C(=O)N[C@H](C(=O)N[C@@H](CC(C)C)C(=O)N[C@H](/C=C/C(=O)OCc2ccccc2)C[C@@H]2CCNC2=O)C(C)C)no1` [N3], the KI (inactivation) at PDCoV M^pro [2] amounted to 12 ± 0.13 µM.

For the compound “Porcine deltacoronavirus (PDCoV) main protease (M^pro) (enzyme)”, the stoichiometry N in test [3] was found to be 2.
